From patent US4496568A, “Antiinflammatory thieno [2,3-c]pyridine derivatives” (PACOR, priority 1977, dated 1985)

Legend:
Assay type in all cases: in vivo
[1] = tested on: localized carrageenin-induced edema; assay: Localized carrageenin-induced edema (anti-inflammatory activity); settings: rats, 100 mg/kg orally 1 hour before, at, and 1 and 2.5 hours after carrageenin, vs reference group
Method: (§1) The pharmacological investigation concerned the anti-inflammatory activity of the compounds of this invention. This activity was investigated according to 2 methods:
(a) Method of localized carrageenin-induced edema
An 1% (0.1 ml) carrageenin solution is injected in the metatarsal flexor muscles of the right hind limb of rats at time 0. The animals of the treated group are additionally administered orally 100 mg/kg body weight of the test derivative, respectively 1 hour prior to injection of the phlogogenic agent, simultaneously with said injection, and then 1 and 2.5 hours thereafter. The determinations effected with a ROCH micrometer at times 0, 1 hour 2 hrs, 3 hrs and 5 hrs after carrageenin administration provide a measure, as a function of time, of the percent anti-inflammatoryactivity, with respect to the reference group.

[2] = tested on: ovalbumin-induced systemic edema; assay: Ovalbumin-induced systemic edema (anti-inflammatory activity); settings: rats, 100 mg/kg orally 1 hour before and simultaneously with ovalbumin, vs reference group
Method: as §1
(b) Method of the ovalbumin-induced systemic edema
A simultaneous intraperitoneal injection of 1 ml ovalbumin and 0,5 ml of 1% aqueous Evans blue solution is effected in rats. On the other hand, the animals of the treated group are orally administered 100 mg/kg body weight of the test derivative, 1 hour prior to ovalbumin administration and simultaneously therewith. The intensity of the phenomenon thus induced is rated according to a scale from 1 to 5, according to the progress of the inflammatory syndrome. Thus are determined, as a function of time, the mean intensity of the edema and the percent decrease of the edema reaction with respect to the reference group.

mice = assay: Acute intravenous toxicity LD50

Row | Compound | Percent anti-inflammatory activity after 1 hr [1] [%] | Percent anti-inflammatory activity after 2 hrs [1] [%] | Percent anti-inflammatory activity after 3 hrs [1] [%] | Percent anti-inflammatory activity after 5 hrs [1] [%] | Percent anti-inflammatory activity after 2 hrs [2] [%] | Percent anti-inflammatory activity after 3 hrs [2] [%] | LD50 (mice) [mg]
1 | Cc1cc2c(O)cncc2s1 [Derivative No. 4, 4-hydroxy-2-methyl-thieno[2,3-c]pyridine] | 45 | 49 | 50 | 52 | 48 | 60 | 
2 | Oc1cncc2ccsc12 [Derivative No. 1, 7-hydroxy-thieno[3,2-c]pyridine] | 43 | 46 | 48 | 49 | 44 | 50 | 131
3 | Oc1cncc2sccc12 [Derivative No. 2, 4-hydroxy-thieno[2,3-c]pyridine] | 40 | 45 | 49 | 49 | 49 | 58 | 
4 | Cc1ncc(O)c2ccsc12 [Derivative No. 3, 4-hydroxy-7-methyl-thieno[2,3-c]pyridine] | 42 | 48 | 52 | 51 | 53 | 61 | 
